ChEMBL document CHEMBL4507276 (2021)

How the values were obtained:
[1] = biological target: Beta-1 adrenergic receptor (Homo sapiens) (UniProt P08588); details: Compound concentration 10.0 uM
[2] = biological target: T1, Ephrin type-B receptor 2 (Homo sapiens) (UniProt P29323); test: EPHB2 Invitrogen selectivity data (BI); details: Compound concentration 3.0 uM
T1 sequence (whole entry): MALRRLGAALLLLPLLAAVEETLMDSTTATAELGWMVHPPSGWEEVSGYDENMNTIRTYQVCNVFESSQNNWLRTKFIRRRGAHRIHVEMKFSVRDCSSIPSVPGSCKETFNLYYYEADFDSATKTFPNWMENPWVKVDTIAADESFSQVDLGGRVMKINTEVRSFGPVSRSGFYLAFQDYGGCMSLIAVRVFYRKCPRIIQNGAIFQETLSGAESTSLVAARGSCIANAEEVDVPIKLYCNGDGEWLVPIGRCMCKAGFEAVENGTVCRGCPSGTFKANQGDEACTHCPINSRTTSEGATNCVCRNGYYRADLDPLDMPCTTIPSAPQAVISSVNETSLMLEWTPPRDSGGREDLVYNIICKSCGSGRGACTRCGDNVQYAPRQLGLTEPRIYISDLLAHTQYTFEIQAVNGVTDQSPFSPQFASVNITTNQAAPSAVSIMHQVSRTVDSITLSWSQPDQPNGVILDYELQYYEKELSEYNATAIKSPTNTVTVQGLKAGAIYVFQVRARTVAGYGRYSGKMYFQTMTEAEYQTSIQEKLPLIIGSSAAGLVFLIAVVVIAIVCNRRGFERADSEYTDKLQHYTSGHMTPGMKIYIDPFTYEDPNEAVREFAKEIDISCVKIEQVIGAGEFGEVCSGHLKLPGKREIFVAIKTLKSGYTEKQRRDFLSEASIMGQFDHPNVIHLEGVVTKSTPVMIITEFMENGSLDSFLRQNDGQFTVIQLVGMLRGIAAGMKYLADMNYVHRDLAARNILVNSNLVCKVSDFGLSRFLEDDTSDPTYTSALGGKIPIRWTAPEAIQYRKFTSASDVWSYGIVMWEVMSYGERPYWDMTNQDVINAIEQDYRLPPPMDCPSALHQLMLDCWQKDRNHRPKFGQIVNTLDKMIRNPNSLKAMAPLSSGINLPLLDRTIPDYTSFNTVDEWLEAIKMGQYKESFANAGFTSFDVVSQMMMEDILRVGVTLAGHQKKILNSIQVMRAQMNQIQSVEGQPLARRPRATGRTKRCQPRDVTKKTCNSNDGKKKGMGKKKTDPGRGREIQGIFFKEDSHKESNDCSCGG

[3] = biological target: cGMP-specific 3',5'-cyclic phosphodiesterase (Homo sapiens) (UniProt O76074); test: PDE5 Cerep selectivity data (BI); details: Compound concentration 20.0 uM
[4] = tested on: Platelet-derived growth factor receptor alpha (Homo sapiens), P16234 [T674I]; test: PDGFRA T674I Invitrogen selectivity data (BI); details: Compound concentration 3.0 uM
[5] = biological target: Receptor-type tyrosine-protein kinase FLT3 (Homo sapiens) (UniProt P36888); test: FLT3 Invitrogen selectivity data (BI); details: Compound concentration 3.0 uM
[6] = biological target: Mitogen-activated protein kinase kinase kinase 10 (Homo sapiens) (UniProt Q02779); test: MAP3K10 Invitrogen selectivity data (BI); details: Compound concentration 3.0 uM
[7] = biological target: Chloride channel protein 1 (Rattus norvegicus) (UniProt P35524); test: CL-CHANNEL/R Cerep selectivity data (BI); details: Compound concentration 20.0 uM
[8] = biological target: Angiotensin-converting enzyme 2 (Homo sapiens) (UniProt Q9BYF1); test: ACE-2(HU) Cerep selectivity data (BI); details: Compound concentration 20.0 uM
[9] = biological target: Tyrosine-protein kinase Fgr (Homo sapiens) (UniProt P09769); test: FGR Invitrogen selectivity data (BI); details: Compound concentration 3.0 uM
[10] = biological target: Homeodomain-interacting protein kinase 3 (Homo sapiens) (UniProt Q9H422); test: HIPK3 Invitrogen selectivity data (BI); details: Compound concentration 3.0 uM
[11] = biological target: Ribosomal protein S6 kinase alpha-6 (Homo sapiens) (UniProt Q9UK32); test: RPS6KA6 Invitrogen selectivity data (BI); details: Compound concentration 3.0 uM
[12] = biological target: T2, Calcium/calmodulin-dependent protein kinase type IV (Homo sapiens) (UniProt Q16566); test: CAMK4 Invitrogen selectivity data (BI); details: Compound concentration 3.0 uM
T2 sequence (whole entry): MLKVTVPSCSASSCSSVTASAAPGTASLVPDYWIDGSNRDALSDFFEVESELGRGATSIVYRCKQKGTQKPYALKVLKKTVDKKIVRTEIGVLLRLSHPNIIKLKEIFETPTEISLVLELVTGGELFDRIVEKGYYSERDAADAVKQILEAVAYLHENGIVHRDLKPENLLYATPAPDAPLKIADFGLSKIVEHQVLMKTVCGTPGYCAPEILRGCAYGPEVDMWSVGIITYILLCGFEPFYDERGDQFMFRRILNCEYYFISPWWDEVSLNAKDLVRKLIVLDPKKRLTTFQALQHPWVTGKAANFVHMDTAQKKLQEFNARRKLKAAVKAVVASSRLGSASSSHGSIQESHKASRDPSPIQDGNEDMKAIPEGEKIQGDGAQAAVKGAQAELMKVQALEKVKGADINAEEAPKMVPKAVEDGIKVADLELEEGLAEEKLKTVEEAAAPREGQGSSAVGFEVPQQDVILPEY

[13] = biological target: T3, Muscarinic acetylcholine receptor M1 (Homo sapiens) (UniProt P11229); details: Compound concentration 10.0 uM
T3 sequence (whole entry): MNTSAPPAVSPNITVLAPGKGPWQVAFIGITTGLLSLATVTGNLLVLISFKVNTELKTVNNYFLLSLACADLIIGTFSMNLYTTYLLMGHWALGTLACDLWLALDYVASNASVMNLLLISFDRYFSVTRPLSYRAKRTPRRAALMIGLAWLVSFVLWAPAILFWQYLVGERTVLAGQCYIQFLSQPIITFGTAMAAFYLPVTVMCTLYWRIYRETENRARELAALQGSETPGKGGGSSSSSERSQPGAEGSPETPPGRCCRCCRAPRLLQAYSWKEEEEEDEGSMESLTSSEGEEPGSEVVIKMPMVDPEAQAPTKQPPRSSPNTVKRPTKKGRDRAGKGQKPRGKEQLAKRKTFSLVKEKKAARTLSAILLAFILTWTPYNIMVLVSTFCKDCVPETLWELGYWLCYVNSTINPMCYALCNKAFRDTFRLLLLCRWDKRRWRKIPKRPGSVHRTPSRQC

[14] = biological target: Serine/threonine-protein kinase 25 (Homo sapiens) (UniProt O00506); test: STK25 Invitrogen selectivity data (BI); details: Compound concentration 3.0 uM
[15] = biological target: ATP-sensitive inward rectifier potassium channel 1 isoform X1 (Mesocricetus auratus) (UniProt A0A1U8CU73); test: K+/KATP/HA Eurofins-Panlabs selectivity data (BI); details: Compound concentration 10.0 uM
[16] = biological target: Fibroblast growth factor receptor 3 (Homo sapiens) (UniProt P22607); test: FGFR3 Invitrogen selectivity data (BI); details: Compound concentration 3.0 uM
[17] = biological target: Endothelin receptor type B (Homo sapiens) (UniProt P24530); test: ETB/H Cerep selectivity data (BI); details: Compound concentration 20.0 uM
[18] = biological target: Fibroblast growth factor receptor 4 (Homo sapiens) (UniProt P22455); test: FGFR4 Invitrogen selectivity data (BI); details: Compound concentration 3.0 uM
[19] = biological target: Glutamate receptor ionotropic, NMDA 1 (Rattus norvegicus) (UniProt P35439); test: NMDAGLSI/RA Eurofins-Panlabs selectivity data (BI); details: Compound concentration 10.0 uM

Serine/threonine-protein kinase 25 (Homo sapiens), sequence (O00506 whole entry, looked up, canonical isoform): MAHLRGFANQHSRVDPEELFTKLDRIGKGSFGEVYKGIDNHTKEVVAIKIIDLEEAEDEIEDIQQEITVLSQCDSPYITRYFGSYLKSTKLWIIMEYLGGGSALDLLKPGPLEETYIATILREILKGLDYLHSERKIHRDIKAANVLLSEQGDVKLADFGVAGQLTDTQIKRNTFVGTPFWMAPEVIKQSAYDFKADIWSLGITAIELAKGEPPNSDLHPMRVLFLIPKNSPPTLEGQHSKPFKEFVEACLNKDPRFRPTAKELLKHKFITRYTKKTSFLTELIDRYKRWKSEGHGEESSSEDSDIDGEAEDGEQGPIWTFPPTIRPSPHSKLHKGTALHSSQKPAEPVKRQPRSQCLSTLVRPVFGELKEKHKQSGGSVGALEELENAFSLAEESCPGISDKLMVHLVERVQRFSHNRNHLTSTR
Beta-1 adrenergic receptor (Homo sapiens), sequence (P08588 whole entry, looked up): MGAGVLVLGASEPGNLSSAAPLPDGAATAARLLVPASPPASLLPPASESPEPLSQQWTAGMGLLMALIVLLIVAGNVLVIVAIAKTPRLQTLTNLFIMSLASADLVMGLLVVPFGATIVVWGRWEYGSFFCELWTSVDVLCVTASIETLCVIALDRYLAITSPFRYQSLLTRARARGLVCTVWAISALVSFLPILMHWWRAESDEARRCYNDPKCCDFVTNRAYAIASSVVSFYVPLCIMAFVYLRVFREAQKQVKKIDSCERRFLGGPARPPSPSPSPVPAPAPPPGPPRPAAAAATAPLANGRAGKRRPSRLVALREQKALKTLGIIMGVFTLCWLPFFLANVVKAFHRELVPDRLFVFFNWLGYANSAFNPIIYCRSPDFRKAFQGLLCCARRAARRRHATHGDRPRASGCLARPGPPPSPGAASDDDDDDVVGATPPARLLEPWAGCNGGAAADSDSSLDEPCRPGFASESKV
Homeodomain-interacting protein kinase 3 (Homo sapiens), sequence (Q9H422 whole entry, looked up): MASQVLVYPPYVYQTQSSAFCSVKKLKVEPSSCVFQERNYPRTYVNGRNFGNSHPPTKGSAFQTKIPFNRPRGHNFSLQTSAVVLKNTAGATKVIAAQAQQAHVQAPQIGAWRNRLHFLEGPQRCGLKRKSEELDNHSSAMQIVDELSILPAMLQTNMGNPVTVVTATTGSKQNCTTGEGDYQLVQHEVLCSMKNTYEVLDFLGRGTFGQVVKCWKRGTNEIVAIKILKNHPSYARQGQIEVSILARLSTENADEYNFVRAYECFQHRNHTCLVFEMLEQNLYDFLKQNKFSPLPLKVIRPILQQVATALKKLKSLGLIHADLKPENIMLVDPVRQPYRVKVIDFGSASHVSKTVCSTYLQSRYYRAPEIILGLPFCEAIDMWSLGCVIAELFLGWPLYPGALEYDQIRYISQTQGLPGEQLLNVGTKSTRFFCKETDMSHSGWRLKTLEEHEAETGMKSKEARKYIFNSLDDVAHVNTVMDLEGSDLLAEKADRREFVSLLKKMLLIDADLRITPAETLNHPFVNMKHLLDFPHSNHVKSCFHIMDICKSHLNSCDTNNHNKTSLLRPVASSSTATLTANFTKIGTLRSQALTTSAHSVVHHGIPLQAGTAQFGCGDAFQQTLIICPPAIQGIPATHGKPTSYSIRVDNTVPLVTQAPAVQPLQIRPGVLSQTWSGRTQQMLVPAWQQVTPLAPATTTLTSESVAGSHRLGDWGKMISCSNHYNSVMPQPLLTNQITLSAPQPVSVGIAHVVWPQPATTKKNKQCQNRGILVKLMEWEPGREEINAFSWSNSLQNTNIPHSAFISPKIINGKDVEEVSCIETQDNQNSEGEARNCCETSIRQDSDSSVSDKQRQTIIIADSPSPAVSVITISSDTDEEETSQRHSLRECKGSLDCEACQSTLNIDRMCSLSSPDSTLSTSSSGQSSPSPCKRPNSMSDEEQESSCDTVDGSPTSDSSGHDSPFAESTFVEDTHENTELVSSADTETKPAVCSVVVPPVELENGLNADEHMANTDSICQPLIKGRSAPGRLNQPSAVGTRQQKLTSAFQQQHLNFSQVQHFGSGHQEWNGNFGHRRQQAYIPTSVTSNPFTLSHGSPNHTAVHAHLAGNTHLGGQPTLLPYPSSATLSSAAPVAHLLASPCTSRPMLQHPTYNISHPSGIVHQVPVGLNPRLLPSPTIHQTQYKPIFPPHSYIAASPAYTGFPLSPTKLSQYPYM
Angiotensin-converting enzyme 2 (Homo sapiens), sequence (Q9BYF1 18-805 limits assumed): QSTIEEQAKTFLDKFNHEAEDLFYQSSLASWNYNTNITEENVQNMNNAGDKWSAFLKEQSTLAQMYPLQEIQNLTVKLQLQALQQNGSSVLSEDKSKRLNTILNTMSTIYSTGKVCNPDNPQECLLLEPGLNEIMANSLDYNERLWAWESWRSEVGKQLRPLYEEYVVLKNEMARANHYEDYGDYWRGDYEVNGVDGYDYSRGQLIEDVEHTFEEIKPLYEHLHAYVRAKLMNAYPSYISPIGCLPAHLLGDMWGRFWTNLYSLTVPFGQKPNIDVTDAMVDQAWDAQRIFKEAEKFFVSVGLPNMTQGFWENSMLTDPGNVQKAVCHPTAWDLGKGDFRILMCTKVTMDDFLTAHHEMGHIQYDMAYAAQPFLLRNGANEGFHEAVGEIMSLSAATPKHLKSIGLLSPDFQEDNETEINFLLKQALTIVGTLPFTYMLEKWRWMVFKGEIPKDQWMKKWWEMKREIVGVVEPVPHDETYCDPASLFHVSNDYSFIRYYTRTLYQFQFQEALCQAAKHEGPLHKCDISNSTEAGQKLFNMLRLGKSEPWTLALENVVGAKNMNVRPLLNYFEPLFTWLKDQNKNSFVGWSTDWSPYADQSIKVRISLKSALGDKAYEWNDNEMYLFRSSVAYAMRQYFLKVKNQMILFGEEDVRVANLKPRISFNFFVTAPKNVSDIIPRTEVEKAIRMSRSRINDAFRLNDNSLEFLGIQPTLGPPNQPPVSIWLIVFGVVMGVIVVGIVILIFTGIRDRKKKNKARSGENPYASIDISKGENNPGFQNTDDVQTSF
Receptor-type tyrosine-protein kinase FLT3 (Homo sapiens), sequence (P36888 whole entry): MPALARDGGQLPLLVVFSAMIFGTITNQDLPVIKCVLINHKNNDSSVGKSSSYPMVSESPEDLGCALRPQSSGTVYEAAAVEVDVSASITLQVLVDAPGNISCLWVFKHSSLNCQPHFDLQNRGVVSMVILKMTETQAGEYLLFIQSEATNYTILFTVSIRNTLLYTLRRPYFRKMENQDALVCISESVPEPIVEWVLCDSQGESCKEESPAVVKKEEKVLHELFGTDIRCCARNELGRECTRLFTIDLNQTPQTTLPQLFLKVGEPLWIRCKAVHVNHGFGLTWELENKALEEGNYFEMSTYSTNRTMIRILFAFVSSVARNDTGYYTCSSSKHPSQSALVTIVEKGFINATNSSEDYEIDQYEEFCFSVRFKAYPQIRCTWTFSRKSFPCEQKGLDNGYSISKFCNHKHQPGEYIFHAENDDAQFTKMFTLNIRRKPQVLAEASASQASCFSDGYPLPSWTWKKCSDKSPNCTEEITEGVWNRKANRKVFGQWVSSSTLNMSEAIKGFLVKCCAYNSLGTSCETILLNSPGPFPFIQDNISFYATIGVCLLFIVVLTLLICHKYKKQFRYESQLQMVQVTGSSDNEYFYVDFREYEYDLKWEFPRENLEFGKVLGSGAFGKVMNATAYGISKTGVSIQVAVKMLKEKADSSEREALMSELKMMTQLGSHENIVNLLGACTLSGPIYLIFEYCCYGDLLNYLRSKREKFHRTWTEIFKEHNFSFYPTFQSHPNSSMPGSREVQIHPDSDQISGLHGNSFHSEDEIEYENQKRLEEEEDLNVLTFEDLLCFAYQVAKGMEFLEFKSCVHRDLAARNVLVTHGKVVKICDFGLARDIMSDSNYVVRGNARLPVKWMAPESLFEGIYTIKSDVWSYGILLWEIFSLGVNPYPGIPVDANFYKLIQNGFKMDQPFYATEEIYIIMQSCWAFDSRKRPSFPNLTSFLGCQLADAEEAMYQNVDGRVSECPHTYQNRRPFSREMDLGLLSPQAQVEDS
Endothelin receptor type B (Homo sapiens), sequence (P24530 whole entry): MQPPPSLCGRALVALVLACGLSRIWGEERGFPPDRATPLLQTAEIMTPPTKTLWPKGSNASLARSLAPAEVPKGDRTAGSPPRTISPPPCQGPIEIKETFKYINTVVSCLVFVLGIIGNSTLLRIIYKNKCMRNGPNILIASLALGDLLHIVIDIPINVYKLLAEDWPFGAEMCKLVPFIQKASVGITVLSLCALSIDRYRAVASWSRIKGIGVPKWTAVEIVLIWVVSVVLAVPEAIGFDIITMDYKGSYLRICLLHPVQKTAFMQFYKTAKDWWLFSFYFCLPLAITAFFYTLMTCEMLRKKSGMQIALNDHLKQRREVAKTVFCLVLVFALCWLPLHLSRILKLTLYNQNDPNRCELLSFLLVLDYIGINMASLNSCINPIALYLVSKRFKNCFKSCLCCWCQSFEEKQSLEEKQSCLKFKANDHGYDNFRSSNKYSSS
ATP-sensitive inward rectifier potassium channel 1 isoform X1 (Mesocricetus auratus), sequence (A0A1U8CU73 as listed by the source): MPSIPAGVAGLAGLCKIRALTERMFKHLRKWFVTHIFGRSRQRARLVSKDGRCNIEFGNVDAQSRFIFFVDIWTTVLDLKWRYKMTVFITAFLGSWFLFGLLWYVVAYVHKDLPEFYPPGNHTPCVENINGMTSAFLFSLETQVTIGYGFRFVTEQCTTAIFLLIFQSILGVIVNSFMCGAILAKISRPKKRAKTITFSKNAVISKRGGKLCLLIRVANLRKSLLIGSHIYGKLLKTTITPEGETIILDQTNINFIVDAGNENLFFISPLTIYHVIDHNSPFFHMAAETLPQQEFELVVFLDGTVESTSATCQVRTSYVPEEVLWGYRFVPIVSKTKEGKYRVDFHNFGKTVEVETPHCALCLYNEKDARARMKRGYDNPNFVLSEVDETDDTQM

CN(C)C(=O)Cn1cc(-c2nc(C3(c4ccc(-c5cnc(N)nc5)cc4)CC3)no2)cn1 [BI 0153]
inactive: inhibition [1] 7.58%

CN(C)C(=O)Cn1cc(-c2nc([C@@](C)(c3ccc(-c4cnc(N)nc4)cc3)C3CC3)no2)cn1 [BI 665915]
inactive: residual activity [2] 93.5% | residual activity [3] 89% | residual activity [4] 87% | residual activity [5] 89% | residual activity [6] 88% | residual activity [7] 88% | residual activity [8] 132% | residual activity [9] 90.5% | residual activity [10] 99% | residual activity [11] 105% | residual activity [12] 86% | inhibition [13] -4.93% | residual activity [14] 106% | residual activity [15] 97% | residual activity [16] 95.5% | residual activity [17] 109% | residual activity [18] 96.5% | residual activity [19] 90%
